Measured values taken from patent EP1174421A1, “3-AMIDINOBENZENESULFONAMIDE DERIVATIVES, MEDICINAL COMPOSITIONS CONTAINING THE SAME AND INT[…] THE PRODUCTION THEREOF” (Kissei Pharmaceutical Co., Ltd., priority 1999, dated 2000).
Structures can show the parent of a compound that is named as a salt. Where two headings read alike, the source gives them in different places.

Tests used:
[1] = target: T1, human activated blood coagulation factor X (Homo sapiens, UniProt P00742); assay: Measurement of inhibitory activity for activated blood coagulation factor X (S-2222 chromogenic substrate); type: biochemical
T1 construct: purchased Calbiochem Corporation
T1 sequence (P00742 235-488 limits assumed): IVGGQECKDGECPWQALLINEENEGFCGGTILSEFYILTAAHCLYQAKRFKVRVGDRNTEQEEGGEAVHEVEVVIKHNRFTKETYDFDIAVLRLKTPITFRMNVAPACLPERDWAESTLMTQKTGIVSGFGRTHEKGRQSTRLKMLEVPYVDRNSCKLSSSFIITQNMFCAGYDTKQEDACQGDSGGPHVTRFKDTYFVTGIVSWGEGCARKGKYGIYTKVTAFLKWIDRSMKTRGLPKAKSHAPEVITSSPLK
T1 sequence (P00742 41-179 partner limits assumed): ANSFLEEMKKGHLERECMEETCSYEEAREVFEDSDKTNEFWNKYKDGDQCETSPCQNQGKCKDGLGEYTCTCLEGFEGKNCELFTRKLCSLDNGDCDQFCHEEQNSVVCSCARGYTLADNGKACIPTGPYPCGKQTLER
Description: (§1) Five µL of dimethylsulfoxide solution of test compound, 375 µL of tris-hydrochloric acid buffer (pH 8.4) and 100 µL of 1 mM S-2222 (Daiichi Pure Chemicals) aqueous solution were mixed. Then 20 µL of 0.6 U/mL human activated blood coagulation factor X (Calbiochem Corporation) in gelatin-glycine buffer was added and the mixture was incubated for 10 minutes at 37 °C. The reaction was terminated with the addition of 100 µL of 60 % acetic acid and absorbance (405 nm) was measured.
The group without test compound was defined as control and the group without human activated blood coagulation factor X was defined as blank.

human thrombin = target: T2, human thrombin (Homo sapiens, UniProt P00734); assay: Measurement of inhibitory activity for thrombin (S-2238 chromogenic substrate); type: biochemical
T2 construct: human thrombin (Sigma Chemical Company); purchased Sigma Chemical Company
Description: as §1, with “S-2238” for “S-2222”, “2.0” for “0.6”, “thrombin (Sigma Chemical Company)” for “activated blood coagulation factor X (Calbiochem Corporation)”
The group without test compound was defined as control and the group without human thrombin was defined as blank. […]

normal human plasma = assay: Measurement of anticoagulation effects (plasma prothrombin time); type: biochemical; conditions: CT2: concentration that prolonged the clotting time (prothrombin time) of control by 2 times
Description: Two µL of dimethylsulfoxide solution of test compound which was put in the process tube was incubated at 37 °C, and 50 µL of normal human plasma (George King Bio-Medical Inc.) was mixed. One minute later, 100 µL of plasma prothrombin time reagent (Neoplastin Plus® , Boehringer Mannheim) was added into the mixture. Prothrombin time was measured with ST4 (Boehringer Mannheim).
The group without test compound was defined as control. The concentration of test compound that prolonged the clotting time of control by 2 times (CT2) was obtained and this value was used as the index of anticoagulation activity.

Male Wistar rats = assay: Acute toxicity test; type: in vivo; conditions: 30 mg/kg, through tail vein (intravenous), groups of 5 rats, survival judged for 24 hours
Description: Male Wistar rats aged 7 weeks (SLC) were divided into several groups consisting of 5 rats. Test compound was dissolved at the concentration that became the administration volume of
2.5 mL/kg. The solution was administered through tail vein at an infusion rate of 1 mL/minute. Observations were performed at constant intervals, and survival rate was judged for 24 hours.

Row | IC50 ([1]; IC50, pH 8.4, 10 minutes at 37 °C, absorbance 405 nm, read-out: Inhibitory activity for activated blood coagulation factor X) [nM] | IC50 (human thrombin; IC50, pH 8.4, 10 minutes at 37 °C, absorbance 405 nm, read-out: Inhibitory activity for thrombin) [µM] | Structure (SMILES) | IC50 [1] [nM] | IC50 (human thrombin) [µM] | Anticoagulation effect (normal human plasma) [µM] | Death cases (Male Wistar rats) | Death cases (Male Wistar rats; listed as 5-amidino-2-hydroxy-N-[2-[4-[1-(1-iminoethyl)piperidin-4-yl]phenyl]ethyl]benzene)
1 | 64 | 101 | CC(C)c1ccc(CCNS(=O)(=O)c2cc(C(=N)N)ccc2O)cc1 [Compound 2, 5-Amidino-N-[2-(4-isopropylphenyl)ethyl]-2-hydroxybenzene-sulfonamide hydrochloride] |  |  |  |  | 
2 |  |  | CC(=N)N1CCC(c2ccc(CCNS(=O)(=O)c3cc(C(=N)N)ccc3O)cc2)CC1 [Compound 8, 5-Amidino-2-hydroxy-N-[2-[4-[1-(1-iminoethyl)piperidin-4-yl]phenyl]ethyl]benzenesulfonamide dihydorchloride] | 87 | > 100 | 0.21 | 0/5 | no death was observed
3 |  |  | CC(=N)N1CC[C@H](Oc2ccc(CCNS(=O)(=O)c3cc(C(=N)N)ccc3O)cc2)C1 [Compound 9, (S)-5-Amidino-2-hydroxy-N-[2-[4-[1-(1-iminoethyl)pyrrolidin-3-yloxylphenyl]ethyl]benzenesulfonamidedihydrochloride] | 88 | > 100 | 0.18 |  | 
4 |  |  | CC(=N)N1CCC(Oc2ccc(CCNS(=O)(=O)c3cc(C(=N)N)ccc3O)cc2)CC1 [Compound 10, 5-Amidino-2-hvdroxv-N-[2-[4-[1-(1-iminoethyl)piperidin-4-yloxy]phenyl]ethyl]benzenesulfonamide dihydrochloride] | 110 | > 100 | 0.22 |  | 
